Laboratory results taken from patent US12606520B2, “Calpain-2 inhibitor compounds and methods of treatment” (WESTERN UNIVERSITY OF HEALTH SCIENCES, priority 2020, dated 2026).
Entries after “also recorded” stand apart in the source; their conditions may differ.

Legend:
[1] = target: T1, calpain-2 (Homo sapiens, UniProt P17655); assay: Inhibitory activity of NA112 isomers against calpain-2; type: biochemical; details: highest concentration tested, 3 μM
T1 sequence (P17655 1-700): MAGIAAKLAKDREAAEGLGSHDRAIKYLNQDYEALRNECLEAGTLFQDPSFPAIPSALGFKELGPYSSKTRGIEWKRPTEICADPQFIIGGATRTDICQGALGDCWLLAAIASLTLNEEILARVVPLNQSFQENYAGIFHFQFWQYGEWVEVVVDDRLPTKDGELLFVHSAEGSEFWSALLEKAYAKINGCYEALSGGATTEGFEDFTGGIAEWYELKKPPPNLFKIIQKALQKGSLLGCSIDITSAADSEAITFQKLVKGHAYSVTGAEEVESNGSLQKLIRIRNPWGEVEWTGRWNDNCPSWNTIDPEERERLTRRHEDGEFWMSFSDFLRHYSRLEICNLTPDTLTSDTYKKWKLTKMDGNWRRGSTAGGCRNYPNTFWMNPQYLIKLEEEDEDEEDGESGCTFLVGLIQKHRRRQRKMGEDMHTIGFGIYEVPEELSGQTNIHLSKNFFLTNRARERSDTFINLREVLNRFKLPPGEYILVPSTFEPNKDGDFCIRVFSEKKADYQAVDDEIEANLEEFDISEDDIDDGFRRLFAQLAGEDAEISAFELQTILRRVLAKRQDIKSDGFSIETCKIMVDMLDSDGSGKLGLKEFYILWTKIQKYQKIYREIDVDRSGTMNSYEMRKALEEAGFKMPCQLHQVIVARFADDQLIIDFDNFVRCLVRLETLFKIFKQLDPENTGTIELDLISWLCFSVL
T1 sequence (P04632 1-268 partner): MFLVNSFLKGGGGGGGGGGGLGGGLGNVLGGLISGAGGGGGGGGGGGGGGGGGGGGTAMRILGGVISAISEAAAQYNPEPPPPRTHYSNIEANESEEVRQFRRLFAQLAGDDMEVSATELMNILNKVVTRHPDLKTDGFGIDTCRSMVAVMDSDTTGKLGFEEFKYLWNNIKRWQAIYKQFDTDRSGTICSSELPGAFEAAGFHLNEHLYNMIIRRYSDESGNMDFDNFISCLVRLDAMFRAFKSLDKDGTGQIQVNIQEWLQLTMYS
Protocol: (§1) The inhibitory activity of the compounds NA112A (S-S isomer) and NA112B (S-R stereoisomer) against calpain-1 and calpain-2 were determined.

[2] = Stability in mouse plasma at 37° C. (residual inhibition of purified human calpain-2); type: in vitro ADME; details: β-cyclodextrin formulation, 10 μM
Protocol: NA112 (C12, 0.2 mM) was incubated with mouse plasma at 37° C. for the indicated periods of time. Aliquots were taken and the degree of inhibition of purified human calpain-2 was measured. Results were normalized to the maximum degree of inhibition (100%) measured at to.
NA112A in β-cyclodextrin formulation (10 μM) was incubated in mouse plasma at 37° C. for the indicated periods of time. Aliquots were taken and the degree of inhibition of purified human calpain-2 was measured. Results were normalized to the maximum degree of inhibition (50%) measured at t0.

[3] = target: T2, calpain-1 (Homo sapiens, UniProt P07384); assay: Inhibitory activity of NA112 isomers against calpain-1; type: biochemical; details: highest concentration tested, 3 μM
T2 sequence (P07384 1-714): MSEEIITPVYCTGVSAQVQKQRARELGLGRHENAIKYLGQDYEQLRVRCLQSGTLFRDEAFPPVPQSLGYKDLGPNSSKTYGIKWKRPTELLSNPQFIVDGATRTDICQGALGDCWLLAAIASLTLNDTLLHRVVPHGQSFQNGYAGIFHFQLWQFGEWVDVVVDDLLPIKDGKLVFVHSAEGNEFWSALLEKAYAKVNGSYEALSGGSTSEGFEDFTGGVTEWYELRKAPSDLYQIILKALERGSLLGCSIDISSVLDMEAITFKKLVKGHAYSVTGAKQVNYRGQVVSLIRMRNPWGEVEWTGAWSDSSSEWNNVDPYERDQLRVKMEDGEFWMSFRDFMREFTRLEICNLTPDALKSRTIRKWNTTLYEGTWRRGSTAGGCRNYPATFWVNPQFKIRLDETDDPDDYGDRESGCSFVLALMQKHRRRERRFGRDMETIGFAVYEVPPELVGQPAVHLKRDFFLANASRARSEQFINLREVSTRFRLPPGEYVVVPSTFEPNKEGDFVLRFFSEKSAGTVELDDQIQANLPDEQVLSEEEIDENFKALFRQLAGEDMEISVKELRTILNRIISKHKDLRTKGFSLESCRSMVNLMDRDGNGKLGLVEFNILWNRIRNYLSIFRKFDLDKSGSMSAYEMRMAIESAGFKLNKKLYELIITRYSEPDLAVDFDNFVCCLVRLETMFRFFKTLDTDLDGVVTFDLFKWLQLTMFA
T2 sequence (P04632 1-268 partner): T1 sequence (P04632 1-268 partner)
Protocol: as §1

[4] = target: T3, recombinant human calpain-2 (hcalpain-2) (Homo sapiens, UniProt P17655); assay: Inhibition of recombinant human calpain-2; type: biochemical; details: highest concentration tested, 3 μM
T3 sequence (P17655 1-700): T1 sequence (P17655 1-700)
T3 sequence (P04632 1-268 partner): T1 sequence (P04632 1-268 partner)
Protocol: (§2) Various concentrations of NA112 in the liposomal formulation were incubated with human calpain-1 (purified from erythrocytes, ecalpain-1) or a recombinant human calpain-2 (hcalpain-2) and calpain activity assayed as in FIG. 1. IC50 were determined and transformed into Ki values (FIG. 10A, 10B). Values previously obtained with NA112 dissolved in DMSO are shown for comparison (FIG. 10B).
(§3) Cerebellar homogenates from wild-type (WT) or calpain-1 Knock-out (KO) mice were incubated with 20 μM calcium to activate calpain-1 or with 2 mM calcium to activate calpain-2, respectively, and increasing concentrations of NA184.
(§4) Like in NA112, there are 2 chiral centers in NA184. The inhibitory activity of the compounds NA184A (S-S isomer) and NA184B (S-R stereoisomer) against erythrocyte human calpain-1 (ecalpain-1) and recombinant human calpain-2 (hcalpain-2) were determined.

[5] = target: T4, human calpain-1 (purified from erythrocytes, ecalpain-1) (Homo sapiens, UniProt P07384); assay: Inhibition of human calpain-1 purified from erythrocytes; type: biochemical; details: highest concentration tested, 3 μM
T4 construct: human calpain-1 (purified from erythrocytes, ecalpain-1); from tissue; host or cells: human erythrocytes
T4 sequence (P07384 1-714): T2 sequence (P07384 1-714)
T4 sequence (P04632 1-268 partner): T1 sequence (P04632 1-268 partner)
Protocol: as §2, §3, §4

[6] = Epimerization/inactivation in PBS at 37° C.; type: physicochemical

Row | Compound | Inhibitory activity against calpain-2 [1] | Inactivation in mouse plasma [2] | Inhibitory activity against calpain-1 [3] | Inhibitory activity against hcalpain-2 [4] | Inhibitory activity against ecalpain-1 [5] | Epimerization/inactivation in PBS [6]
1 | CC[C@H](NC(=O)[C@H](CC(C)C)NC(=O)NCc1ccccc1)C(=O)C(=O)NCc1cc(OC)cc(OC)c1 [NA112A, (S)-2-(3-benzylureido)-N-((S)-1-((3,5-dimethoxybenzyl)amino)-1,2-dioxopentan-3-yl)-4-methylpentanamide] | expected inhibitory activity | rapidly inactivated; also recorded: became inactive | – | – | – | –
2 | CC[C@@H](NC(=O)[C@H](CC(C)C)NC(=O)NCc1ccccc1)C(=O)C(=O)NCc1cc(OC)cc(OC)c1 [NA112B] | no inhibitory activity | – | no inhibitory activity | – | – | –
3 | CC[C@H](NC(=O)[C@H](CC(C)C)NC(=O)NCc1ccccc1)C(=O)C(=O)NCc1cccc(Cl)c1OC [NA184A] | – | – | – | expected inhibitory activity | expected inhibitory activity | rapidly inactivated; also recorded: rapid epimerization
4 | CC[C@@H](NC(=O)[C@H](CC(C)C)NC(=O)NCc1ccccc1)C(=O)C(=O)NCc1cccc(Cl)c1OC [NA184B] | – | – | – | no inhibitory activity | no inhibitory activity | –
